Test results taken from US20200397796A1, “METHODS OF TREATMENT OF CANCER COMPRISING CHK1 INHIBITORS” (SIERRA ONCOLOGY, INC., priority 2018, published 2020).
Values joined by “and” are separate entries in the source; they are usually repeats but may differ in a detail not shown here. Equal values may be shown once. Read-outs that look alike come from different tables or passages of the source.

Columns and labels:
mTmG = test: In vivo efficacy, mTmG syngeneic mouse model; details: in combination with a PD1/PD-L1 inhibitor; data not shown
Description: A program of in vivo efficacy studies was performed to assess the activity of SRA737 in combination with genotoxic chemotherapy and targeted agents, and as monotherapy.
One of these models also carried a MYCN amplification. A fourth HGSOC PDX model with partial resistance to PARPi was also sensitive to high dose SRA737 monotherapy.

CYP 3A4 = CYP 3A4 (Homo sapiens, UniProt P08684); test: CYP inhibition, 3A4; assay type: in vitro ADME; details: highest concentration investigated
Sequence of CYP 3A4 (P08684 whole entry): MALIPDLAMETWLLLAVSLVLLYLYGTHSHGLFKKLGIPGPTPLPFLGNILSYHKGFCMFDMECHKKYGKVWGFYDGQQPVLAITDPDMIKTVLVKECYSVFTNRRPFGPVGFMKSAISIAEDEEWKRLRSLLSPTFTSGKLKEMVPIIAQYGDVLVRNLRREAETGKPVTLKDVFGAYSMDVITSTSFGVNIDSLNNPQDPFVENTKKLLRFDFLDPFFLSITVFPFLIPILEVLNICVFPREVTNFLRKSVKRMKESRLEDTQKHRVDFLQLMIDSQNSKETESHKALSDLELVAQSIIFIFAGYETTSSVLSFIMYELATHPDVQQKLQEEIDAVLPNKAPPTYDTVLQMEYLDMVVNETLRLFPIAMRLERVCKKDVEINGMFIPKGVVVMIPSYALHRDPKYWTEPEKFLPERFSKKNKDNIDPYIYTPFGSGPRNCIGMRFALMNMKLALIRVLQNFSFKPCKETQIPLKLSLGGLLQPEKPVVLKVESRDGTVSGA

[1] = Phase 1 clinical trial, SRA737 monotherapy dose escalation; assay type: in vivo, human; details: for AUC(0-t): AUC0-24
Description: A Phase 1 clinical trial was conducted in ‘all comers,’ i.e. no genetic selection was performed, to establish safety, tolerability and pharmacokinetics (“Dose Escalation Phase”). Cohorts consisting initially of a single subject received escalating doses of SRA737, starting in Cohort 1 with 20 mg/day administered orally on a continuous daily dosing schedule in 28 day cycles. the dose was escalated until the maximum tolerated dose (MTD) was identified.
In the Dose Escalation Phase, 18 subjects received SRA737 in 9 dose level cohorts, from 20 to 1300 mg QD; median treatment duration 62.5 days (range 1 to 226). […] Two of 3 subjects experienced DLTs at the 1300 mg once daily dose, each being an inability to receive 75% of the planned SRA737 dose due to GI intolerability, with the individual GI effects being low grade. […] A cohort receiving 500 mg twice daily was added to determine if a twice daily dosing schedule can improve GI tolerability, given the half-life of SRA737 is approximately 10 hours. One of 6 subjects experienced DLTs in the 500 mg twice daily cohort; this was an inability to receive 75% of the planned SRA737 dose due to grade 4 thrombocytopenia with grade 3 neutropenia and anemia.
Cmin was calculated at 1000 mg QD (411 ng/mL) and exceeded that determined in preclinical models to be effective. Doses≥300 mg QD also exceeded the preclinical models to be effective.

[2] = SRA737 plasma and tumor concentrations in HT29 xenograft model; assay type: in vivo, mouse; parameters: Tumor (6 h) concentration / Tumor (24 h) concentration: unit not given here; details: for concentration at 6 h / concentration at 24 h: plasma
Description: For each dose, columns from left to right are concentrations for plasma at 6 hours, plasma at 24 hours, tumor at 6 hours, and tumor at 24 hours, respectively.
The effect of SRA737 on Gemcitabine induced CHK1 S296 autophosphorylation was assessed as described in Walton et al. (Oncotarget. 2016 Jan. 19; 7(3): 2329-2342), herein incorporated by reference for all it teaches. Briefly, mice bearing HT29 tumor xenografts were administered (i) vehicle control or (ii) gemcitabine (100 mg/kg in saline, IV) or (iii) a combination of SRA737 ([…]) and gemcitabine (100 mg/kg) with SRA737 administered 24 hours following gemcitabine administration (n=3 per time point per treatment). […] Exposure in the tumor was greater than 10-fold higher than in plasma. The circulating plasma concentration at this 24-hour timepoint corresponded to a free drug concentration of approximately 6 nM (2 ng/mL) based on plasma protein binding in mice of 94%.

Single dose PK, dog = assay type: in vivo
Description: The PK of SRA737 have been determined in the mouse, rat, dog and monkey following oral and IV administration (Table 3). […] An acceptable terminal elimination t1/2 was also observed in each species. […] The plasma protein binding of SRA737 at 1 and 10 μM was examined in mouse, minipig, monkey and human plasma using ultracentrifugation and in dog plasma (10 μM) using rapid equilibrium dialysis.

[3] = in vivo, Dog IV 1 mg/kg single dose
[4] = in vivo, Dog oral 5 mg/kg single dose

N#Cc1cnc(Nc2cc(NCC3CNCCO3)c(C(F)(F)F)cn2)cn1 (stereo not shown) [SRA737, 5-[[4-[[morpholin-2-yl]methylamino]-5-(trifluoromethyl)-2-pyridyl]amino]pyrazine-2-carbonitrile]
antitumor activity (mTmG): Significant antitumor activity | IC50 (CYP 3A4): 10 to 50 µM | maximum tolerated dose (MTD) ([1]; BID): 500 mg | maximum tolerated dose (MTD) ([1]; QD, continuous daily oral dosing): 1000 mg | dose-limiting toxicities (DLTs) ([1]; human, in vivo): without any dose-limiting toxicities | doses that exceeded the level determined in preclinical models to be effective ([1]; human, in vivo): ≥ 300 mg | Cmax ([1]; human, in vivo, 20 mg): 29.0 ng/mL | Cmax ([1]; human, in vivo, 20 mg, Cmax): 43 ng/mL | half-life ([1]; human, in vivo, 20 mg, T1/2): 17.6 h | AUC0-24 ([1]; human, in vivo, 40 mg): 1,006 ng · h/mL | Cmax ([1]; human, in vivo, 40 mg): 75.9 ng/mL | T1/2 ([1]; human, in vivo, 40 mg): 16.8 h | Tmax ([1]; human, in vivo, 40 mg): 2.0 h | AUC(0-t) ([1]; human, in vivo, 40 mg): 809 ng·h/mL | Cmax ([1]; human, in vivo, 40 mg, Cmax): 95 ng/mL | half-life ([1]; human, in vivo, 40 mg, T1/2): 9.85 h | Tmax ([1]; human, in vivo, 40 mg, Tmax): 1 h | AUC0-24 ([1]; human, in vivo, 80 mg): 1,064 ng · h/mL | Cmax ([1]; human, in vivo, 80 mg): 81.4 ng/mL | T1/2 ([1]; human, in vivo, 80 mg): 15.6 h | Tmax ([1]; human, in vivo, 80 mg): 2.0 h | AUC(0-t) ([1]; human, in vivo, 80 mg): 691 ng·h/mL | Cmax ([1]; human, in vivo, 80 mg, Cmax): 68.9 ng/mL | half-life ([1]; human, in vivo, 80 mg, T1/2): 9.27 h | Tmax ([1]; human, in vivo, 80 mg, Tmax): 4 h | AUC0-24 ([1]; human, in vivo, 160 mg): 2,515 ng · h/mL | Cmax ([1]; human, in vivo, 160 mg): 217 ng/mL | T1/2 ([1]; human, in vivo, 160 mg): 19.8 h | Tmax ([1]; human, in vivo, 160 mg): 2.0 h | AUC(0-t) ([1]; human, in vivo, 160 mg): 1620 ng·h/mL | Cmax ([1]; human, in vivo, 160 mg, Cmax): 178 ng/mL | half-life ([1]; human, in vivo, 160 mg, T1/2): 13.8 h | Tmax ([1]; human, in vivo, 160 mg, Tmax): 4 h | AUC0-24 ([1]; human, in vivo, 300 mg): 2,362 ng · h/mL | T1/2 ([1]; human, in vivo, 300 mg): 15.4 h | Tmax ([1]; human, in vivo, 300 mg): 6.0 h | AUC(0-t) ([1]; human, in vivo, 300 mg): 3150 ng·h/mL | half-life ([1]; human, in vivo, 300 mg, T1/2): 8.59 h | Tmax ([1]; human, in vivo, 300 mg, Tmax): 4 h | AUC0-24 ([1]; human, in vivo, 600 mg): 12,850 ng · h/mL | Cmax ([1]; human, in vivo, 600 mg): 1,381 ng/mL | T1/2 ([1]; human, in vivo, 600 mg): 10.4 h | Tmax ([1]; human, in vivo, 600 mg): 2.9 h | AUC(0-t) ([1]; human, in vivo, 600 mg): 8870 ng·h/mL | Cmax ([1]; human, in vivo, 600 mg, Cmax): 998 ng/mL | half-life ([1]; human, in vivo, 600 mg, T1/2): 12.9 h | Tmax ([1]; human, in vivo, 600 mg, Tmax): 1.8 h | AUC0-24 ([1]; human, in vivo, 800 mg): 25,423 ng · h/mL | Cmax ([1]; human, in vivo, 800 mg): 2,573 ng/mL | T1/2 ([1]; human, in vivo, 800 mg): 10.0 h | Tmax ([1]; human, in vivo, 800 mg): 2.5 h | AUC(0-t) ([1]; human, in vivo, 800 mg): 18900 ng·h/mL | Cmax ([1]; human, in vivo, 800 mg, Cmax): 1980 ng/mL | half-life ([1]; human, in vivo, 800 mg, T1/2): 10.3 h | Tmax ([1]; human, in vivo, 800 mg, Tmax): 3.3 h | T1/2 ([1]; human, in vivo, 1000 mg): 9.38 h | Tmax ([1]; human, in vivo, 1000 mg): 3.1 h | AUC(0-t) ([1]; human, in vivo, 1000 mg): 26800 ng·h/mL | Cmax ([1]; human, in vivo, 1000 mg, Cmax): 2390 ng/mL | half-life ([1]; human, in vivo, 1000 mg, T1/2): 11 h | Tmax ([1]; human, in vivo, 1000 mg, Tmax): 3.3 h | AUC(0-t) ([1]; human, in vivo, 1300 mg): 29800 ng·h/mL | Cmax ([1]; human, in vivo, 1300 mg, Cmax): 3230 ng/mL | half-life ([1]; human, in vivo, 1300 mg, T1/2): 11.8 h | Tmax ([1]; human, in vivo, 1300 mg, Tmax): 2.7 h | half-life ([1]; human, in vivo, half-life): ~10 h | Tumor (6 h) concentration ([2]; 3.125 mg/kg): 3183.276 | Tumor (24 h) concentration ([2]; 3.125 mg/kg): 645.7623 | Tumor (6 h) concentration ([2]; 6.25 mg/kg): 4011.501 | Tumor (24 h) concentration ([2]; 6.25 mg/kg): 965.7797 | Tumor (6 h) concentration ([2]; 12.5 mg/kg): 19009.57 | Tumor (24 h) concentration ([2]; 12.5 mg/kg): 3974.933 | Tumor (6 h) concentration ([2]; 25 mg/kg): 37516 | Tumor (24 h) concentration ([2]; 25 mg/kg): 16289.53 | Tumor (6 h) concentration ([2]; 50 mg/kg): 76331.2 | Tumor (24 h) concentration ([2]; 50 mg/kg): 27483.73 | Tumor (6 h) concentration ([2]; 100 mg/kg): 131506.7 | Tumor (24 h) concentration ([2]; 100 mg/kg): 101764.1 | concentration at 6 h ([2]; mouse, oral, 3.125 mg/kg): 194 nM | concentration at 24 h ([2]; mouse, oral, 3.125 mg/kg, read-out: Plasma (24 h) concentration): 0 nM | concentration at 6 h ([2]; mouse, oral, 6.25 mg/kg): 323 nM | concentration at 24 h ([2]; mouse, oral, 6.25 mg/kg, read-out: Plasma (24 h) concentration): 13.1 nM | concentration at 24 h ([2]; mouse, oral, 12.5 mg/kg, 24-hour timepoint, based on plasma protein binding in mice of 94%, read-out: free drug concentration in plasma): ~6 nM and ~2 ng/mL | concentration at 24 h ([2]; mouse, oral, 12.5 mg/kg, at 24 hours, approximate, read-out: minimum (total) plasma concentration corresponding to inhibition of pS296 Chk1): ~100 nM | concentration at 24 h ([2]; mouse, oral, 12.5 mg/kg, at 24 hours, read-out: minimum (total) plasma concentration corresponding to inhibition of pS296 Chk1): ~40 ng/mL | concentration at 24 h ([2]; mouse, oral, 12.5 mg/kg, read-out: Plasma (24 h) concentration): 78 ± 27 nM | Kp ([2]; mouse, tumor, oral, HT29 xenograft mice, read-out: exposure in the tumor relative to plasma): > 10 | Foral (Single dose PK, dog; Dog oral 5 mg/kg single dose): 86% | AUC(0-t) (Single dose PK, dog; [3]): 200 ng·h/mL | half-life (Single dose PK, dog; [3]): 2.8 h | AUC(0-t) (Single dose PK, dog; [4]): 850 ng·h/mL | Cmax (Single dose PK, dog; [4]): 130 ng/mL | Tmax (Single dose PK, dog; [4]): 1 to 3 h | half-life (Single dose PK, dog; [4]): 3.5 h
